Experiments:
[1] = DPPH test of antiradical activity; details: substances at 100 μM, mean ± SEM
Description: The DPPH test was used to examine antiradical activity based on the ability of a stable chromogen radical of 2,2-diphenyl-1-picrylhydrazyl (DPPH) to remove a hydrogen atom, which is accompanied by a change in the absorption maximum in the electronic absorption spectra. The amount of reduced DPPH was measured using a Cytation ™ 3 multifunctional plate analyzer (BioTek Instruments, Inc., Winooski, VT, USA) at a wavelength of 517 nm.
The antiradical activity of the test compounds was evaluated by the DPPH test, based on the ability of antioxidants to donate an electron to the stable chromogen radical DPPH, converting it into a nonradical form and neutralizing its activity. […] The chromogenic free radical DPPH used in this test has a large size, and substances even with a similar chemical structure may have different antiradical properties due to spatially difficult access.

5xFAD transgenic mice [2] = assay: Ex vivo total glutathione in mouse brain homogenate; details: post-mortem, versus 5xFAD mice
Description: (§1) At the end of the in vivo series of experiments, the animals’ brains were sampled for further measurement of the lipid peroxidation level, as well as glutathione content in mouse brain homogenates. A synaptosomal p2 fraction containing mitochondria was also isolated to investigate the bioenergetic characteristics of organelles.
The performance of the glutathione system of the cell’s own antioxidant defense was evaluated using a commercially available kit (Glutathione Assay Kit, Sigma Aldrich, Saint Louis, MO, USA) in accordance with the protocol provided by the manufacturer. The total glutathione level was determined by spectrophotometric measurement at a wavelength of 412 nm by the amount of 2-nitro-5-thiobenzoic acid, a product formed during the reduction of GSH 5,5′-dithiobis-(2-nitrobenzoic acid).
The glutathione content was estimated using the method based on measurement of the absorption of a colored compound formed during the colorimetric reaction of DTNB with SH groups of glutathione. […] Therefore, the level of lipid peroxidation of mouse brain homogenates was also measured by its final product, malondialdehyde. […]

5xFAD transgenic mice [3] = assay: Ex vivo electron transport chain activity of brain mitochondria (Seahorse OCR); assay type: in vivo; details: brain mitochondrial p2 fraction of treated 5xFAD mice
Description: as §1
The study on the effect of the electron transport chain complexes was carried out on a preparation of the mitochondrial p2 fraction of the brain (10 µg/well) using the Agilent Seahorse XF96e Analyzer (Seahorse Bioscience, Santa Clara, CA, USA) to measure the rate of oxygen uptake under the action of modulators. For this purpose, the activators of the electron transport chain complex I-glutamate/malate, the inhibitor of complex I, rotenone (2 µM), the substrate of complex II, potassium succinate ([…]), the inhibitor of complex III, antimycin A, and the substrates of complex IV, ascorbate, were used/TMPD (0.5 µM).
To evaluate mitochondrial functioning, we determined the functioning of the respiratory chain complexes using Seahorse Bioanalyzer. […] However, the oxygen consumption rate (OCR) was increased in transgenic animals treated with the test compounds.

β-amyloid 1–42 = tested on: T1, β-amyloid 1–42; assay: β-amyloid 1–42 aggregation, Thioflavin T fluorescence; assay type: biochemical; details: 100 μM, 72 h incubation
T1 construct: fragments Aβ1–40 and Aβ1–42
Description: The effect of the studied compounds on the aggregation of β-amyloid (1–40/1–42) was analyzed using the method of recording Thioflavin T fluorescence (10 µM) for 72 h at 37 °C. The fluorescence signal was measured using a multifunctional flatbed analyzer, the Cytation ™ 3 (BioTek Instruments, Inc., Winooski, VT, USA), at λex = 450 nm, λem = 480 nm.
The effect of hydroxamic acids on the stage of aggregation of the pathological β-amyloid peptide was investigated for 72 h using two model systems—fragments Aβ1–40 and Aβ1–42. The fluorophore Thioflavin T was used as an indicator of the ongoing fibrillation process, the interaction of which with proteins in the state of amyloid fibrils leads to an increase in the fluorescence signal.

SMILES | melting point | % of Activity, Antiradical Activity [1] | Total glutathione content in brain (5xFAD transgenic mice [2]) | Oxygen consumption rate (OCR) after injection of succinate (5xFAD transgenic mice [3]; complex II) | Oxygen consumption rate (OCR) after injection of ascorbate (5xFAD transgenic mice [3]; complex IV) | Effect on β-amyloid 1–42 aggregation (β-amyloid 1–42)
O=C(CCCCCCC(=O)NC1C2CC3CC(C2)CC1C3)NO (centres unmarked) [compound 15, N^1-(Adamant-2-yl)-N^8-Hydroxyoctanediamide] | 133.6 °C | 19.70 ± 1.34% | tended to recover this parameter | 251.00 ± 10.45 pmol/min | 422.67 ± 14.61 pmol/min | noticeable fibrillation inhibition
O=C(/C=C/c1ccc(C(=O)NO)cc1)NC1C2CC3CC(C2)CC1C3 (centres unmarked) [compound 25, 4-((E)-3-((-Adamantan-2-yl)amino)-3-Oxoprop-1-en-1-yl)-N-Hydroxybenzamide] |  | 43.34 ± 1.42% |  |  |  | noticeable fibrillation inhibition

Reference: article PMC8623418, “Novel Multitarget Hydroxamic Acids with a Natural Origin CAP Group against Alzheimer’s Disease: Synthesis, Docking and Biological Evaluation” (Pharmaceutics, 2021)
